Values quoted from earlier work, collected in US5760027A, “Use of 7-alkylidene cephalosporins to inhibit elastase activity” (Research Corporation Technologies, Inc., priority 1996, dated 1998).

Test system: b-lactamase
Conditions: commercial b-lactamase inhibitors, for comparison; cited from earlier work

SMILES: O=C(O)[C@H]1/C(=C/CO)O[C@@H]2CC(=O)N21 [clavulanic acid]
- ratio at which inhibitor must be used: 200 to 1
